US5319096A, “(1H-indol-1-yl)-2-(amino) acetamides and related (1H-indol-1-yl)-(aminoalkyl)amides, pharmaceutical composition and use” (Hoechst-Roussel Pharmaceuticals Inc., priority 1992, dated 1994)
Counter-ions that a name gives are not always drawn.

How the values were obtained:
[1] = system: direct infusion of NMDA or quinolinate into the rat striatum; settings: cited from earlier work
[2] = system: NMDA-induced Striatal Lesion; test: Protection Against NMDA-induced Striatal Lesion (% control enzyme activity, lesioned vs contralateral striatum); type: in vivo, Male Sprague Dawley rats; settings: ip, NMDA 150 nanomoles, 7 days post surgery; for % Control Enzyme Activity ChAT: choline acetyltransferase; for % Control Enzyme Activity GAD: glutamic acid decarboxylase
From the text: Glutamate, aspartate and other excitatory amino acids (EAA) are putative neurotransmitters at vertebrate CNS excitatory synapses. […] The neurotoxicity of EAA has led to the implication of their involvement in human neurodegenerative disorders such as Alzheimer's Disease. Subacute or chronic overexposure to endogenous neurotoxin may lead to the slow degeneration of neurons (Olney, J., Excitotoxic Amino Acids and Neuropsychiatric Disorders. Annu. Rev. Pharmacol. Toxicol. 30:47-71, 1990). […] The striatal lesion paradigm can be used to assess the neuroprotective potential of novel compounds.
Testing of the compounds was carried out as follows: Male Sprague Dawley rats (Charles River) are housed under standard laboratory conditions as outlined in the "Guide for the Care and Use of Laboratory Animals" (National Institutes of Health Publications No. 85-23, Revised 1985). Food and water were provided ad libitum; lights were on from 0600-1800 h. Sterile techniques were used during surgery.
Rats (250-320 g) were anesthetized with chloral hydrate (400 mg/kg i.p., 10 ml/kg) and mounted in a David Kopf® stereotaxic instrument. An incision was made in the scalp and the skull surface was exposed. All coordinates were taken from the point on the skull where bregma meets the midline suture. The adjustable incisor bar was set at 3.3 mm below horizontal but may be adjusted. A 1-2 mm burr hole in the skull was made with a dental drill 0.5 mm anterior to bregma and 3.0 mm lateral from the midline (Paxinos, G. and Watson, C., The Rat Brain in Stereotaxic Coordinates. New York: Academic Press, 2nd ed., 1986). […] The cannula remained in place for one minute before infusion began. A total volume of 1 μl of NMDA (150 nanomoles per μl) solution was infused slowly (0.2 μl/2 min, total time of infusion was 10 min). The cannula remained in place for 5 minutes and then was slowly withdrawn (approx. 0.1 mm every 12 sec). NMDA was dissolved in 0.1M sodium phosphate buffer, pH 7.4. An equally osmolar solution of sodium chloride was used as a control in the contralateral striatum. The burr hole was sealed with bone wax and the scalp sutured closed.
The animals were sacrificed by decapitation seven days following surgery. The striatum was dissected over ice. […]
The experimental compounds were dissolved in 0.9% NaCl or appropriate vehicle and administered i.p. either pre- and/or post-excitotoxin infusion. […] Analysis of variance was calculated by the Newman-Keuls test with the PHARM/PCS computer program (Tallarida, R. J. and Murray, R. B., Manual of Pharmacologic Calculations with Computer Programs, Springer-Verlag, New York, 1987).

[3] = system: striatal neurons, infusion of quinolinate; settings: 100 mg/kg, i.p., 1 hour after infusion of quinolinate; cited from earlier work
[4] = system: neurodegeneration in the rat striatum caused by intracerebral infusion of NMDA; settings: cited from earlier work
[5] = system: global ischemia in the gerbil; settings: cited from earlier work

O=C(O)c1cc(O)c2ccc(Cl)cc2n1 [7-Chlorokynurenate]
neuroprotection [1]: significant neuroprotection

NCC(=O)Nn1ccc2ccccc21 [[N-(1H-Indol-1-yl)-2-amino]acetamide hydrochloride]
% Control Enzyme Activity ChAT ([2]; 100 mg/kg, pretreatment 30 min): 68 % Control | % Control Enzyme Activity GAD ([2]; 100 mg/kg, pretreatment 30 min): 63 % Control

O=C(O)C1CN(CCCP(=O)(O)O)CCN1 (stereo not drawn) [CPP]
protection of striatal neurons [3]: partial protection of striatal neurons

NC1CCN(O)C1=O (stereo not drawn) [HA-966, 3-amino-1-hydroxypyrrolid-2-one]
neuroprotection [1]: significant neuroprotection

C[C@]12N[C@H](Cc3ccccc31)c1ccccc12 [dizocilpine]
% Control Enzyme Activity ChAT ([2]; 10 mg/kg, pretreatment 60 min): 104 % Control | % Control Enzyme Activity GAD ([2]; 10 mg/kg, pretreatment 60 min): 110 % Control | protection against neurodegeneration in the rat striatum [4]: protected against neurodegeneration in the rat striatum

NS(=O)(=O)c1cccc2c1c([N+](=O)[O-])cc1nc(O)c(O)nc12 [NBQX, 2,3-Dihydroxy-6-nitro-7-sulfamoylbenzo(F)quinoxaline]
protection against global ischemia [5]: protects against global ischemia in the gerbil
